PubChem BioAssay (NCI)
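Exposure lasted 48 hours, with cells grown in 96-well plates and compounds tested at five concentrations. GI50: concentration for 50% inhibition of growth. The concentration for full growth arrest is given as TGI.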

Key:
Assay in all cases: NCI anticancer screen, dose series, 48 h
[1] = test system: DU-145 prostate
[2] = test system: PC-3 prostate
[3] = test system: TK-10 renal
[4] = test system: MALME-3M melanoma
[5] = test system: COLO 205 colon
[6] = test system: MDA-MB-435
[7] = test system: KM12 colon
[8] = test system: MOLT-4 leukemia
[9] = test system: SR leukemia
[10] = test system: A498 renal

Compound | GI50 [1] [µM] | TGI [1] [µM] | GI50 [2] [µM] | TGI [2] [µM] | GI50 [3] [µM] | TGI [3] [µM] | GI50 [4] [µM] | TGI [4] [µM] | GI50 [5] [µM] | TGI [5] [µM] | GI50 [6] [µM] | TGI [6] [µM] | GI50 [7] [µM] | TGI [7] [µM] | GI50 [8] [µM] | TGI [8] [µM] | GI50 [9] [µM] | TGI [9] [µM] | GI50 [10] [µM] | TGI [10] [µM]
Cc1ccc(S(=O)(=O)Oc2ccc3c4c(c(=O)oc3c2)CCCCC4)cc1 | > 100 | > 100 | 4.26 | > 100 | > 100 | > 100 | > 100 | > 100 | 4.05 | > 100 | > 100 | > 100 | 7.16 | > 100 | 6.16 | > 100 | 3.3 | > 100 | 6.21 | > 100
N#CC1C(=N)Cc2ccccc2-c2ccccc21 (stereo not given) | 6.92 | 49.7 | 12.7 | > 100 | 20.2 | 63.6 | 4.2 | 27.4 | 3.82 | 20.9 | 1.2 | 3.57 | 3.43 | 16.1 | 5 | 43.4 | 3.31 | 20.7 | 2.78 | 14
CS(=O)(=O)N1CCN(Cc2cc3nc(-c4cccc5[nH]ncc45)nc(N4CCOCC4)c3s2)CC1 (tested in a mixture with another compound) | 0.0837 | – | 0.0823 | – | 0.129 | – | 0.139 | 1.99 | 0.182 | 0.649 | 0.0425 | 0.211 | 0.0826 | 0.415 | 0.0608 | – | 0.194 | – | 0.136 | 0.774
O=C1C=CC(=O)C1(Br)Br | – | 39 | – | 33.1 | – | 10.4 | – | 41.5 | – | 24.1 | – | 29.8 | – | 29.4 | – | > 100 | – | 29.5 | – | 27.4
COc1ncc(-c2nc3c(n2C(C)C)[C@H](c2ccc(Cl)cc2)N(c2cc(Cl)cn(C)c2=O)C3=O)c(OC)n1 | 94.8 | > 100 | 20.2 | > 100 | 36.8 | > 100 | 14.6 | 59.3 | 36.9 | > 100 | 35.3 | > 100 | 41.2 | > 100 | 12.4 | 39.6 | 6.14 | 77.1 | 19.2 | 84.6
CC(CN)[C@@H]1CC[C@]2(CO)CC[C@]3(C)[C@H](CC[C@@H]4[C@@]5(C)CCC(NCCO)C(C)(C)[C@@H]5CC[C@]43C)[C@@H]12 (stereo not given in full) | 2.34 | 5.32 | 2.53 | 11.4 | 1.81 | 3.88 | 1.62 | 3.16 | 1.73 | 3.55 | 1.7 | 3.14 | 1.9 | 4.14 | 1.56 | 4.28 | 1.94 | 4.95 | 11 | 23.5
Nc1nc2ccc([C@@H]3Nc4ccc5[nH]ncc5c4[C@H]4[C@H]5CCC(C5)[C@H]43)cc2s1 | 1.63 | 5.78 | 1.04 | 3.2 | 2.73 | 8.98 | 0.968 | 2.6 | 1.08 | 2.92 | 0.293 | 1.03 | 0.838 | 2.3 | 0.632 | 3.05 | 0.336 | 2.72 | 0.288 | 1.78
COc1cc2c3c(n(CCCN)c(=O)c2cc1OC)-c1ccc(F)cc1C3=O | 0.788 | 2.03 | 1.41 | 6.64 | 14.7 | 30.4 | 9.22 | 28.5 | 1.79 | 5.4 | 8.16 | 25.5 | 5.95 | 20.3 | 0.385 | 4.13 | 0.118 | 1.14 | 14.2 | 28.5
CN(C)CCNC(=O)c1cccc2cc3ccccc3nc12 | 1.8 | 4.37 | 2.33 | 10.8 | 1.23 | 4.08 | 1.4 | 3.34 | 0.779 | 3.55 | 1.86 | 6.67 | 2.07 | 10.2 | 0.399 | 7.95 | 0.338 | 8.1 | 1.26 | 2.8
CCCCCCCCOc1ccc(/C=N/Nc2cc(C)nc3ccc(Cl)cc23)cc1 | 1.76 | 3.32 | 1.5 | 3.04 | 1.91 | 3.33 | 1.85 | 3.36 | 1.82 | 3.56 | 1.73 | 3.16 | 1.85 | 3.44 | 2.05 | 4.93 | 1.61 | 7.12 | 1.98 | 3.45
Nc1nc2c(c3ncccc13)C(c1cccc(Cl)c1)Cc1ncccc1-2 (stereo not given) | 2.77 | 24.9 | 2.6 | 17.6 | 8.11 | 65.7 | 15.2 | 60.4 | 1.53 | 3.94 | 0.29 | 1.17 | 0.646 | 15.5 | 2.43 | 50.4 | 0.469 | 14.3 | 1.35 | 6.24
COc1cc2c3c(n(CCN)c(=O)c2cc1OC)-c1cc2c(cc1C3=O)OCO2 | 0.0401 | 1.13 | 0.671 | 2.89 | 1.79 | 3.63 | 0.24 | 6.12 | 0.8 | 4.4 | 1.04 | 2.78 | 0.235 | 1.51 | 0.084 | > 100 | 1.56 | > 100 | 3.48 | 18.9
